Results published in patent US20170204426A1, “MODIFIED BRASSICA PLANTS WITH INCREASED SEED OIL CONTENT” (BROOKHAVEN SCIENCE ASSOCIATES, LLC, priority 2014, published 2017).

Columns and labels:
[1] = tested on: AGPase; assay: Allosteric effect of 3-PGA on AGPase activity in oilseed rape embryo; assay type: biochemical, Brassica napus
Description: The intermediates PEP and 3-PGA are known to allosterically affect enzymatic activity of ATP-dependent PFK and AGPase, respectively.
[…] 500 μl of common extraction buffer [10% (v/v) glycerol, 0.25% (w/v) BSA, 0.1% (v/v) Triton X-100, 50 mM Hepes/KOH, pH 7.5, 10 mM MgCl2, 1 mM EDTA, 1 mM EGTA, 1 mM benzamidine, 1 mM ε-aminocapronic acid, 1 mM phenylmethylsulfonyl fluoride (PMSF), […], 1 mM dithiothreitol (DTT)] and c. 10 mg polyvinyl pyrrolidone. PMSF was added just before extraction. DTT was omitted when using peroxidase-based or MTT-based indicator reactions (MTT: methylthiazolyldiphenyl-tetrazolium bromide). A 96-head liquid handling robot (Evolution P3, Perkin Elmer, Wellesey, Mass., USA) was used to perform subsequent dilutions of these initial extracts and to load extracts on to 96-well micro plates. During this process micro plates were maintained at 4° C. using peltier cooled blocks. […] The concentration of the products of these stopped reactions (NAD+, NADH, NADPH or glycerol-3-phosphate) was then determined using cycling assays. […] Nitrate reductase and glutamine synthetase were determined using end point assays (Gibon et al, 2004, supra). […] After measuring PK activity at pH 8.0 and at pH 6.7, the plastidic and cytosolic activities were calculated accordingly.

[2] = tested on: ATP-dependent PFK; assay: Allosteric effect of PEP on ATP-dependent PFK activity in oilseed rape embryo; assay type: biochemical, Brassica napus
[3] = tested on: PPi-PFKs of Thermoproteus tenax, Naegleria fowleri, Methylococcus capsulatus or Amycolatopsis methanolica; conditions: Reshetnikov et al. 2008; Alves et al.; cited from earlier work

SMILES	effect on enzymatic activity of AGPase [1]	effect on enzymatic activity of ATP-dependent PFK [2]	inhibition of PPi-PFK by PEP [3]
O=C(O)[C@H](O)COP(=O)(O)O [3-PGA, 3-phosphoglycerate]	clear activity changes		
C=C(OP(=O)(O)O)C(=O)O [PEP, phosphoenolpyruvate]		clear activity changes	not inhibited
